Source: US10316371B2, “Screening methods for identifying specific Staphylococcus aureus inhibitors” (TRANA DISCOVERY, INC., priority 2011, dated 2019)
In brackets after ≈: the same amount, converted by molar mass. Like-named read-outs stand apart in the source and are kept apart here.

What was measured:
S. aureus ATCC 29213 = experiment: Resistance passaging experiment; format: cell-based; conditions: for MIC: Staphylococcus aureus
Protocol: (§1) Two compounds (#880 and #169) were tested in time-kill assays against S. aureus strain 29213. These compounds were then used to attempt to select for resistant variants by passaging at sub-MIC concentrations for 20 passages.
The selected strain for this experiment was S. aureus ATCC 29213. A frozen glycerol stock was streaked onto MH-II agar and grown overnight at 37° C. The next day, 3-5 colonies were picked and grown in 3 mL of MH-II broth at 37° C. with 200 rpm shaking for approximately 4 hours. A 2-fold microdilution (in round-bottom, 96-well plates) was made for each compound being tested. CLSI guidelines for broth microdilution were followed. Using the bacteria grown from the overnight colonies, each microdilution was inoculated at a final concentration of 5×10^5 colony forming units (CFU)/mL. The microdilutions were incubated at 37° C. for 16 to 20 hours, after which the minimal inhibitory concentration (MIC) of each was read visually. The MIC is defined as the lowest concentration of compound resulting in no visible bacterial growth. This activity is recorded as the MIC at Passage 0. The contents of the well in the next dilution lower in concentration than the MIC (i.e., ½ the MIC) was mixed with a micropipette and 50 μL was transferred to 3 mL of fresh MH-II broth. This was grown at 37° C. with 200 rpm shaking for approximately 4 hours, at which time the sample was turbid. A 1 mL aliquot of this sample was added to a cryovial containing 300 μL of glycerol. This was marked as passage 1, vortexed, than placed in a −80° C. freezer for storage. The rest of the culture was adjusted to a bacterial concentration of 1×10^6cfu/mL (OD600 of 0.004), which was then used to inoculate a microdilution of the same compound (final bacterial concentration of 5×10^5 cfu/mL). This was incubated at 37° C. for 16 to 20 hours. After that time the MIC was once again read and recorded as the MIC at Passage 1. This process was repeated through 20 passages. Ciprofloxacin was included as a control and an untreated sample was also passaged 20 times as a negative control.

[1] = system: S. aureus specific Arg ASL (anticodon stem loop) RNA oligomer interaction with programmed ribosomes; experiment: Fluorescence polarization assay of Arg ASL / programmed ribosome complex (HTS and dose response); format: binding, S. aureus Arg ASL; E. coli 70S ribosomes; conditions: control compounds
From the text: The assay requires the following materials: • Ribosomes—isolated from E. coli or S. aureus • fMet tRNA (Sigma or Chemical Block, Moscow) • mRNA (including the S-D sequence, the “box” sequence, the codon for methionine, and the codon for arginine that is specific for S. aureus, AGA, optionally with additional base pairs to the left of the S-D sequence and/or to the right of the codon for arginine) • Fluorescently labeled Arg ASL oliogomer • Buffer—HAM20,β • 384 well high binding micro titer plates (Matrix Technologies #4319, sold by Fischer Scientific as cat #50823855), or other appropriate plates for use in high throughput screening • Filtration (Sartorius Stedium 100 Kdalton VC 1042) or centrifugation for complex purification • EDTA—negative control (binding antagonist) • Neomycin—A-site binding enhancer (binding agonist)
A ribosome complex was prepared using the above materials and then purified prior to use in the assay. The prepared complex can be stored in concentrated form at −80° C. The complexes were diluted in buffer and dispensed onto plates. […] Fluorescence polarization was measured at approximately 4 hours after dispensing onto the micro-titer plates.
ASL^Arg was first heated for 2 min at 90° C. in water, after addition of 1/10 V of 10× buffer incubation continued on ice for at least 10 min. Prior to complex formation 70S ribosomes and tRNA were reactivated in buffer for 5 min at 45° C. followed by 10 min at 37° C.; mRNA was heated in buffer at 37° C. for 5 min. • (1000 μl×(2 μM E. coli 70S ribosomes+10 μM mRNA-Arg+4 μM tRNA^fmet)/HAM20,β→30 min @ 37° C.,+1000 μl×(0.2 μM neomycin+[…]))→20 min @ 37° C., overnight on ice • Final complex: (2000 pm P+2000 pm ASL)/2 ml=1 μM P+1 μM ASL HAM20,β:
Preparation of Complexes: The purified complex was diluted in ice cold HAM20,β such that the total fluorescence was approximately 2,000,000 units per 5 μL.
20 μl of the diluted complex was added to all 384 well plates (except for blank wells, which received 20 μL of HAM20 only, without complex) using Multidrop dispenser after which the plates were incubated at 25° C. for 4 hours (target 4.5 hours for middle of batch). Plates were then analyzed for fluorescence polarization in Analyst HT fluorescence plate reader and the following instrument settings:
The parallel and perpendicular fluorescence values of experimental wells were automatically corrected for the corresponding values obtained from the blank wells. The fluorescence polarization was calculated as following: P=(I−Ip)/(I+Ip), wherein Ip—is perpendicular fluorescence and I—is parallel fluorescence.
The percent of effect of experimental compounds was calculated as following: %-Inh=(P0−Pc)/(P0−P100)*100, wherein P0—is average polarization in 0%—inhibition control wells, P100—is average polarization in 100%—inhibition control wells, and Pc—is polarization in compound well.
The 3 sigma HTS hits were cherry picked and retested in 6 pt dose response format, using 3× serial dilution and the top nominal concentration of 100 uM.
The compounds were serially diluted in 10% DMSO and plated into 384 well plates (in a volume of 5 μL) to achieve the nominal final concentration raging from 100 μM to 0.4 μM. The plates received 20 μl of the diluted complex following incubation at 25° C. for 4 hours. Plates were then analyzed for fluorescence polarization as described above (see HTS section).
In parallel, the compounds were tested for auto-fluorescence. To this end, the compounds were plated (using the same dilution protocol) into 384 well plates. The plates received 20 μL of the HAM20 assay buffer only (without complex). The plates were incubated for 4 hrs and then were analyzed for fluorescence polarization as described above.

S. aureus strain 29213 = experiment: Time-kill experiments; format: cell-based; conditions: by 8 hours
Protocol: as §1
Twenty mL of MH-II media warmed to 37° C. was seeded with log-phase growth S. aureus strain 29213 at 1×10^6 cfu/mL in 50 mL erlenmeyer shake-flasks. Compound was added at 2× and 4× the MIC value. Negative controls (no drug) and positive drug controls (vancomycin at 2× and 4× the MIC) were included in the experiment. Flasks were shaken at 200 rpm and 37° C. Samples were taken at the times indicated (0, 2, 4, 6, 8 and 24 hrs post inoculation) and bacterial loads were quantified by limiting dilution assay.

O=C(O)c1cn(C2CC2)c2cc(N3CCNCC3)c(F)cc2c1=O [Ciprofloxacin]
MIC in S. aureus 29213 (S. aureus ATCC 29213; Passage 0): 0.5 µg/mL (≈ 1.51 µM)
MIC in S. aureus 29213 (S. aureus ATCC 29213; Passage 20, passaged at sub-MIC): > 256 µg/mL
MIC (S. aureus ATCC 29213; ATCC29213, read-out: MIC in S. aureus 29213, Passage 0): 0.5 µg/mL (≈ 1.51 µM)
MIC (S. aureus ATCC 29213; ATCC29213, read-out: MIC in S. aureus 29213, Passage 1, passaged at sub-MIC): 1 µg/mL (≈ 3.02 µM)
MIC (S. aureus ATCC 29213; ATCC29213, read-out: MIC in S. aureus 29213, Passage 2, passaged at sub-MIC): 2 µg/mL (≈ 6.04 µM)
MIC (S. aureus ATCC 29213; ATCC29213, read-out: MIC in S. aureus 29213, Passage 3, passaged at sub-MIC): 2 µg/mL (≈ 6.04 µM)
MIC (S. aureus ATCC 29213; ATCC29213, read-out: MIC in S. aureus 29213, Passage 4, passaged at sub-MIC): 2 µg/mL (≈ 6.04 µM)
MIC (S. aureus ATCC 29213; ATCC29213, read-out: MIC in S. aureus 29213, Passage 5, passaged at sub-MIC): 2 µg/mL (≈ 6.04 µM)
MIC (S. aureus ATCC 29213; ATCC29213, read-out: MIC in S. aureus 29213, Passage 6, passaged at sub-MIC): 2 µg/mL (≈ 6.04 µM)
MIC (S. aureus ATCC 29213; ATCC29213, read-out: MIC in S. aureus 29213, Passage 7, passaged at sub-MIC): 2 µg/mL (≈ 6.04 µM)
MIC (S. aureus ATCC 29213; ATCC29213, read-out: MIC in S. aureus 29213, Passage 8, passaged at sub-MIC): 4 µg/mL (≈ 12.1 µM)
MIC (S. aureus ATCC 29213; ATCC29213, read-out: MIC in S. aureus 29213, Passage 9, passaged at sub-MIC): 8 µg/mL (≈ 24.1 µM)
MIC (S. aureus ATCC 29213; ATCC29213, read-out: MIC in S. aureus 29213, Passage 10, passaged at sub-MIC): 8 µg/mL (≈ 24.1 µM)
MIC (S. aureus ATCC 29213; ATCC29213, read-out: MIC in S. aureus 29213, Passage 11, passaged at sub-MIC): 16 µg/mL (≈ 48.3 µM)
MIC (S. aureus ATCC 29213; ATCC29213, read-out: MIC in S. aureus 29213, Passage 12, passaged at sub-MIC): 16 µg/mL (≈ 48.3 µM)
MIC (S. aureus ATCC 29213; ATCC29213, read-out: MIC in S. aureus 29213, Passage 13, passaged at sub-MIC): 32 µg/mL (≈ 96.6 µM)
MIC (S. aureus ATCC 29213; ATCC29213, read-out: MIC in S. aureus 29213, Passage 14, passaged at sub-MIC): 32 µg/mL (≈ 96.6 µM)
MIC (S. aureus ATCC 29213; ATCC29213, read-out: MIC in S. aureus 29213, Passage 15, passaged at sub-MIC): 32 µg/mL (≈ 96.6 µM)
MIC (S. aureus ATCC 29213; ATCC29213, read-out: MIC in S. aureus 29213, Passage 16, passaged at sub-MIC): 64 µg/mL (≈ 193 µM)
MIC (S. aureus ATCC 29213; ATCC29213, read-out: MIC in S. aureus 29213, Passage 17, passaged at sub-MIC): 128 µg/mL (≈ 386 µM)
MIC (S. aureus ATCC 29213; ATCC29213, read-out: MIC in S. aureus 29213, Passage 18, passaged at sub-MIC): 128 µg/mL (≈ 386 µM)
MIC (S. aureus ATCC 29213; ATCC29213, read-out: MIC in S. aureus 29213, Passage 19, passaged at sub-MIC): 256 µg/mL (≈ 773 µM)
MIC (S. aureus ATCC 29213; ATCC29213, read-out: MIC in S. aureus 29213, Passage 20, passaged at sub-MIC): > 256 µg/mL
MIC (S. aureus ATCC 29213; ATCC29213, read-out: MIC in S. aureus 29213, second Passage 10 line of Table 4 (untreated culture passaged 10 times)): 0.5 µg/mL (≈ 1.51 µM)
MIC (S. aureus ATCC 29213; ATCC29213, read-out: MIC in S. aureus 29213, second Passage 20 line of Table 4 (untreated culture passaged 20 times)): 0.5 µg/mL (≈ 1.51 µM)
increase of MIC over 20 passages (S. aureus ATCC 29213; passaging at sub-MIC concentration, 20 passages): > 512 fold

O=C(O)CN(CCN(CC(=O)O)CC(=O)O)CC(=O)O [EDTA, reference compound]
effect on complex formation (fluorescence polarization versus time, FIG. 11) [1]: inhibitor of complex formation

CN[C@H](CC(C)C)C(=O)N[C@H]1C(=O)N[C@@H](CC(N)=O)C(=O)N[C@H]2C(=O)N[C@H]3C(=O)N[C@H](C(=O)N[C@H](C(=O)O)c4cc(O)cc(O)c4-c4cc3ccc4O)[C@H](O)c3ccc(c(Cl)c3)Oc3cc2cc(c3O[C@@H]2O[C@H](CO)[C@@H](O)[C@H](O)[C@H]2O[C@H]2C[C@](C)(N)[C@H](O)[C@H](C)O2)Oc2ccc(cc2Cl)[C@H]1O [Vancomycin, reference compound]
reduction of bacterial counts (S. aureus strain 29213; 2× the MIC): 2.5 log10
reduction of bacterial counts (killing) (S. aureus strain 29213; 4× the MIC): 2.5 log10

Neomycin [reference compound]
effect on complex formation (fluorescence polarization versus time, FIG. 11) [1]: stabilizer of complex formation
